≈ marks a conversion by molar mass, not a printed value. Blank lines part the entries; values can stand above or below the compound they belong to.
Assays:
[1] = test system: Staphylococcus epidermidis; assay: Antibacterial activity against Staphylococcus epidermidis ATCC 35547 assessed as effect on planktonic growth at 0.68 ug/ml after 20 hrs relative to control; assay type: functional
Pseudomonas aeruginosa [2] = assay: Antibacterial activity against Pseudomonas aeruginosa ATCC 27853 assessed as effect on planktonic growth at 87.5 ug/ml after 20 hrs relative to control; assay type: functional
Staphylococcus aureus [3] = assay: Antibacterial activity against Staphylococcus aureus ATCC 25923 assessed as effect on planktonic growth at 21.9 ug/ml after 20 hrs relative to control; assay type: functional
Streptococcus mutans [4] = assay: Antibacterial activity against Streptococcus mutans ATCC 25175 assessed as effect on planktonic growth at 87.5 ug/ml after 20 hrs relative to control; assay type: functional
Pseudomonas aeruginosa [5] = assay: Antibacterial activity against Pseudomonas aeruginosa ATCC 27853 assessed as inhibition of biofilm formation after 20 hrs by crystal-violet staining method; assay type: functional, organism-based; settings: for IC50: ATCC 27853, 20 h
Streptococcus mutans [6] = assay: Antibacterial activity against Streptococcus mutans ATCC 25175 assessed as effect on planktonic growth at 0.34 ug/ml after 20 hrs relative to control; assay type: functional
Staphylococcus aureus [7] = assay: Antibacterial activity against Staphylococcus aureus ATCC 25923 assessed as effect on planktonic growth at 0.17 ug/ml after 20 hrs relative to control; assay type: functional
[8] = test system: Staphylococcus epidermidis; assay: Antibacterial activity against Staphylococcus epidermidis ATCC 35547 assessed as effect on planktonic growth at 1.37 ug/ml after 20 hrs relative to control; assay type: functional
Pseudomonas aeruginosa [9] = assay: Antibacterial activity against Pseudomonas aeruginosa ATCC 27853 assessed as effect on planktonic growth at 0.17 ug/ml after 20 hrs relative to control; assay type: functional
Pseudomonas aeruginosa [10] = assay: Antibacterial activity against Pseudomonas aeruginosa ATCC 27853 assessed as effect on planktonic growth at 0.34 ug/ml after 20 hrs relative to control; assay type: functional
[11] = test system: Staphylococcus epidermidis; assay: Antibacterial activity against Staphylococcus epidermidis ATCC 35547 assessed as effect on planktonic growth at 87.5 ug/ml after 20 hrs relative to control; assay type: functional
Staphylococcus aureus [12] = assay: Antibacterial activity against Staphylococcus aureus ATCC 25923 assessed as effect on planktonic growth at 10.9 ug/ml after 20 hrs relative to control; assay type: functional
[13] = test system: Staphylococcus epidermidis; assay: Antibacterial activity against Staphylococcus epidermidis ATCC 35547 assessed as effect on planktonic growth at 21.9 ug/ml after 20 hrs relative to control; assay type: functional
Staphylococcus aureus [14] = assay: Antibacterial activity against Staphylococcus aureus ATCC 25923 assessed as effect on planktonic growth at 5.5 ug/ml after 20 hrs relative to control; assay type: functional
Pseudomonas aeruginosa [15] = assay: Antibacterial activity against Pseudomonas aeruginosa ATCC 27853 assessed as effect on planktonic growth at 21.9 ug/ml after 20 hrs relative to control; assay type: functional
Streptococcus mutans [16] = assay: Antibacterial activity against Streptococcus mutans ATCC 25175 assessed as effect on planktonic growth at 0.17 ug/ml after 20 hrs relative to control; assay type: functional
Pseudomonas aeruginosa [17] = assay: Antibacterial activity against Pseudomonas aeruginosa ATCC 27853 assessed as effect on planktonic growth at 2.73 ug/ml after 20 hrs relative to control; assay type: functional
Streptococcus mutans [18] = assay: Antibacterial activity against Streptococcus mutans ATCC 25175 assessed as effect on planktonic growth at 0.68 ug/ml after 20 hrs relative to control; assay type: functional
Streptococcus mutans [19] = assay: Antibacterial activity against Streptococcus mutans ATCC 25175 assessed as effect on planktonic growth at 10.9 ug/ml after 20 hrs relative to control; assay type: functional
Pseudomonas aeruginosa [20] = assay: Antibacterial activity against Pseudomonas aeruginosa ATCC 27853 assessed as effect on planktonic growth at 43.8 ug/ml after 20 hrs relative to control; assay type: functional
Staphylococcus aureus [21] = assay: Antibacterial activity against Staphylococcus aureus ATCC 25923 assessed as effect on planktonic growth at 2.73 ug/ml after 20 hrs relative to control; assay type: functional
[22] = test system: Staphylococcus epidermidis; assay: Antibacterial activity against Staphylococcus epidermidis ATCC 35547 assessed as effect on planktonic growth at 5.5 ug/ml after 20 hrs relative to control; assay type: functional
[23] = test system: Staphylococcus epidermidis; assay: Antibacterial activity against Staphylococcus epidermidis ATCC 35547 assessed as effect on planktonic growth at 43.8 ug/ml after 20 hrs relative to control; assay type: functional
Pseudomonas aeruginosa [24] = assay: Antibacterial activity against Pseudomonas aeruginosa ATCC 27853 assessed as effect on planktonic growth at 0.68 ug/ml after 20 hrs relative to control; assay type: functional
Streptococcus mutans [25] = assay: Antibacterial activity against Streptococcus mutans ATCC 25175 assessed as effect on planktonic growth at 43.8 ug/ml after 20 hrs relative to control; assay type: functional
[26] = test system: Staphylococcus epidermidis; assay: Antibacterial activity against Staphylococcus epidermidis ATCC 35547 assessed as inhibition of biofilm formation after 20 hrs by crystal-violet staining method; assay type: functional, organism-based
Staphylococcus aureus [27] = assay: Antibacterial activity against Staphylococcus aureus ATCC 25923 assessed as effect on planktonic growth at 0.34 ug/ml after 20 hrs relative to control; assay type: functional
Staphylococcus aureus [28] = assay: Antibacterial activity against Staphylococcus aureus ATCC 25923 assessed as effect on planktonic growth at 0.68 ug/ml after 20 hrs relative to control; assay type: functional
[29] = test system: Staphylococcus epidermidis; assay: Antibacterial activity against Staphylococcus epidermidis ATCC 35547 assessed as effect on planktonic growth at 0.34 ug/ml after 20 hrs relative to control; assay type: functional
Staphylococcus aureus [30] = assay: Antibacterial activity against Staphylococcus aureus ATCC 25923 assessed as effect on planktonic growth at 87.5 ug/ml after 20 hrs relative to control; assay type: functional
Streptococcus mutans [31] = assay: Antibacterial activity against Streptococcus mutans ATCC 25175 assessed as effect on planktonic growth at 2.73 ug/ml after 20 hrs relative to control; assay type: functional
Staphylococcus aureus [32] = assay: Antibacterial activity against Staphylococcus aureus ATCC 25923 assessed as effect on planktonic growth at 1.37 ug/ml after 20 hrs relative to control; assay type: functional
[33] = test system: Staphylococcus epidermidis; assay: Antibacterial activity against Staphylococcus epidermidis ATCC 35547 assessed as effect on planktonic growth at 0.17 ug/ml after 20 hrs relative to control; assay type: functional
Pseudomonas aeruginosa [34] = assay: Antibacterial activity against Pseudomonas aeruginosa ATCC 27853 assessed as effect on planktonic growth at 1.37 ug/ml after 20 hrs relative to control; assay type: functional
[35] = test system: Staphylococcus epidermidis; assay: Antibacterial activity against Staphylococcus epidermidis ATCC 35547 assessed as effect on planktonic growth at 2.73 ug/ml after 20 hrs relative to control; assay type: functional
Pseudomonas aeruginosa [36] = assay: Antibacterial activity against Pseudomonas aeruginosa ATCC 27853 assessed as effect on planktonic growth at 10.9 ug/ml after 20 hrs relative to control; assay type: functional
Streptococcus mutans [37] = assay: Antibacterial activity against Streptococcus mutans ATCC 25175 assessed as effect on planktonic growth at 1.37 ug/ml after 20 hrs relative to control; assay type: functional
Streptococcus mutans [38] = assay: Antibacterial activity against Streptococcus mutans ATCC 25175 assessed as effect on planktonic growth at 21.9 ug/ml after 20 hrs relative to control; assay type: functional
Pseudomonas aeruginosa [39] = assay: Antibacterial activity against Pseudomonas aeruginosa ATCC 27853 assessed as effect on planktonic growth at 5.5 ug/ml after 20 hrs relative to control; assay type: functional
[40] = test system: Staphylococcus epidermidis; assay: Induction of biofilm formation in Staphylococcus epidermidis ATCC 35547 at 87.5 ug/ml after 20 hrs by crystal-violet staining method relative to control; assay type: organism-based
Staphylococcus aureus [41] = assay: Antibacterial activity against Staphylococcus aureus ATCC 25923 assessed as effect on planktonic growth at 43.8 ug/ml after 20 hrs relative to control; assay type: functional
Streptococcus mutans [42] = assay: Antibacterial activity against Streptococcus mutans ATCC 25175 assessed as effect on planktonic growth at 5.5 ug/ml after 20 hrs relative to control; assay type: functional
[43] = test system: Staphylococcus epidermidis; assay: Antibacterial activity against Staphylococcus epidermidis ATCC 35547 assessed as effect on planktonic growth at 10.9 ug/ml after 20 hrs relative to control; assay type: functional

IC50 (Pseudomonas aeruginosa [5]): 2.2 mg/L (≈ 4.45 µM)
Activity [40]: 46.9%
SMILES: COc1cccc(CC2(O)C(c3cc(Cl)ccc3OC)=C(Br)C(=O)N2CC(C)C)c1 (stereo not drawn)
Activity [1]: 5.1%
Activity (Pseudomonas aeruginosa [2]): -3.6%
Activity (Staphylococcus aureus [3]): -15.1%
Activity (Streptococcus mutans [4]): 9%
inhibition (Pseudomonas aeruginosa [5]): Dose-dependent effect
Activity (Streptococcus mutans [6]): -12.5%
Activity (Staphylococcus aureus [7]): 2%
Activity [8]: 4.7%
Activity (Pseudomonas aeruginosa [9]): -4%
Activity (Pseudomonas aeruginosa [10]): -5.8%
Activity [11]: 14.5%
Activity (Staphylococcus aureus [12]): -9.9%
Activity [13]: 6.9%
Activity (Staphylococcus aureus [14]): -8.1%
Activity (Pseudomonas aeruginosa [15]): -3.7%
Activity (Streptococcus mutans [16]): -14%
Activity (Pseudomonas aeruginosa [17]): -18.9%
Activity (Streptococcus mutans [18]): -12.5%
Activity (Streptococcus mutans [19]): -3.7%
Activity (Pseudomonas aeruginosa [20]): -2.3%
Activity (Staphylococcus aureus [21]): 2.3%
Activity [22]: 6.4%
Activity [23]: 15.7%
Activity (Pseudomonas aeruginosa [24]): -6.7%
Activity (Streptococcus mutans [25]): 6.5%
inhibition [26]: Dose-dependent effect
Activity (Staphylococcus aureus [27]): 0.7%
Activity (Staphylococcus aureus [28]): -5%
Activity [29]: 3.3%
Activity (Staphylococcus aureus [30]): 22.1%
Activity (Streptococcus mutans [31]): 0.3%
Activity (Staphylococcus aureus [32]): 6.8%
Activity [33]: 10%
Activity (Pseudomonas aeruginosa [34]): -4.2%
Activity [35]: 3.4%
Activity (Pseudomonas aeruginosa [36]): -3.3%
Activity (Streptococcus mutans [37]): -8.7%
Activity (Streptococcus mutans [38]): -0.6%
Activity (Pseudomonas aeruginosa [39]): -5.5%
Activity (Staphylococcus aureus [41]): 0.7%
Activity (Streptococcus mutans [42]): 1.6%
Activity [43]: -0.3%

IC50 (Pseudomonas aeruginosa [5]): > 87.5 mg/L
Activity [40]: 143.6%
SMILES: COc1ccccc1C1=C(Br)C(=O)N(CC(C)C)C1(O)Cc1ccc(C(F)(F)F)cc1 (stereo not drawn)
Activity [1]: 1.4%
Activity (Pseudomonas aeruginosa [2]): -10.8%
Activity (Staphylococcus aureus [3]): -17%
Activity (Streptococcus mutans [4]): -36.3%
inhibition (Pseudomonas aeruginosa [5]): Dose-dependent effect
Activity (Streptococcus mutans [6]): 6.2%
Activity (Staphylococcus aureus [7]): -4.8%
Activity [8]: 0.1%
Activity (Pseudomonas aeruginosa [9]): 4.7%
Activity (Pseudomonas aeruginosa [10]): 3.7%
Activity [11]: 0.5%
Activity (Staphylococcus aureus [12]): -5.8%
Activity [13]: 13.8%
Activity (Staphylococcus aureus [14]): -4.1%
Activity (Pseudomonas aeruginosa [15]): -12.2%
Activity (Streptococcus mutans [16]): 0.7%
Activity (Pseudomonas aeruginosa [17]): -18.4%
Activity (Streptococcus mutans [18]): 10.9%
Activity (Streptococcus mutans [19]): -23.9%
Activity (Pseudomonas aeruginosa [20]): -7.8%
Activity (Staphylococcus aureus [21]): 0.5%
Activity [22]: 10.7%
Activity [23]: 16.3%
Activity (Pseudomonas aeruginosa [24]): -6.5%
Activity (Streptococcus mutans [25]): -29.9%
inhibition [26]: Dose-dependent effect
Activity (Staphylococcus aureus [27]): -2.8%
Activity (Staphylococcus aureus [28]): -5.6%
Activity [29]: 1.9%
Activity (Staphylococcus aureus [30]): -15.4%
Activity (Streptococcus mutans [31]): 1.7%
Activity (Staphylococcus aureus [32]): 2.5%
Activity [33]: 6.3%
Activity (Pseudomonas aeruginosa [34]): -19.3%
Activity [35]: 3.5%
Activity (Pseudomonas aeruginosa [36]): -16.2%
Activity (Streptococcus mutans [37]): 12.4%
Activity (Streptococcus mutans [38]): -26.9%
Activity (Pseudomonas aeruginosa [39]): -17.2%
Activity (Staphylococcus aureus [41]): -17%
Activity (Streptococcus mutans [42]): -18.7%
Activity [43]: 16.4%

From ChEMBL document CHEMBL3112480, “γ-Alkylidene-γ-lactones and isobutylpyrrol-2(5H)-ones analogues to rubrolides as inhibitors of biofilm formation by gram-positive and gram-negative bacteria” (Bioorg Med Chem Lett, 2014)
